One data set has as its system S. aureus F-137. The data set can be described thus: Antibacterial activity (MIC), S. aureus F-137 (β-lactamase-producing). The format is cell-based. The conditions noted are these: 10^6 cells/plate, 37° C., 20 hours. The protocol: (§1) According to the standard method of Japan Society of Chemotherapy [CHEMOTHERAPY, vol. 29, No. 1, pages 76-79 (1981)], a loopful of a cell suspension obtained by culturing in Mueller Hinton broth (mfd. by Difco) at 37° C. for 20 hours and adjusted to a concentration of 10^6 cells/plate (10^8 cells/ml) was inoculated into a Mueller Hinton agar medium (mfd. by Difco) containing the test compound, followed by incubation at 37° C. for 20 hours. […] In Table 1, *1 to *4 denote the following strains:
2: β-lactamase-producing S. aureus

The nature of the next data set: in vivo. The conditions noted are these: mouse, intravenous, ddy strain mice, solution in 0.1 N aqueous sodium hydroxide, read-out: median lethal dose (LD50). As for the experimental part:
Each test compound was intravenously administered to groups of 4 ddy strain mice (body weight: 30±1 g) each, whereby its acute toxicity was investigated. In this case, the compound was administered in the form of a solution prepared by dissolving the compound in a 0.1 N aqueous sodium hydroxide solution.

The next data set relates to S. aureus F-597. The data set can be described thus: Antibacterial activity (MIC), S. aureus F-597 (methicillin-resistant). The format is cell-based. The conditions noted are these: Mueller Hinton agar, 10^6 cells/plate, 37° C. As for the experimental part: as §1
3: methicillin-resistant S. aureus

Another data set relates to S. aureus FDA209P. The data set can be described thus: Antibacterial activity (MIC), S. aureus FDA209P. The format is cell-based, Staphylococcus aureus. As for the experimental part: (§2) According to the standard method of Japan Society of Chemotherapy [CHEMOTHERAPY, vol. 29, No. 1, pages 76-79 (1981)], a loopful of a cell suspension obtained by culturing in Mueller Hinton broth (mfd. by Difco) at 37° C. for 20 hours and adjusted to a concentration of 10^6 cells/plate (10^8 cells/ml) was inoculated into a Mueller Hinton agar medium (mfd. by Difco) containing the test compound, followed by incubation at 37° C. for 20 hours. […]

For a further data set, the system named is E. coli NIHJ JC-2. The data set can be described thus: Antibacterial activity (MIC), E. coli NIHJ JC-2. The format is cell-based, Escherichia coli. As for the experimental part: as §2
Setting [1] is: Staphylococcus aureus, F137, Mueller Hinton agar, read-out: MIC.
[2] abbreviates: Staphylococcus aureus, F597, 20 h, read-out: MIC.
Where [3] appears, read: Staphylococcus aureus, S. aureus FDA209P, Mueller Hinton agar, 10^6 cells/plate, 37° C., 20 hours, read-out: MIC.
The mark [4] stands for this setting: Escherichia coli, NIHJJC2, E. coli NIHJ JC-2, Mueller Hinton agar, 10^6 cells/plate, 37° C., 20 hours, read-out: MIC.

Values after ≈ are worked out from the molar mass of the structure shown. Where two headings read alike, the source gives them in different places.

The term MIC denotes the least concentration at which growth counts as inhibited. The term LD50 denotes the dose at which mortality reaches 50%. Take `CC1NCc2cc(-c3ccc4c(=O)c(C(=O)O)cn(C5CC5)c4c3OC(F)F)ccc21` (racemic) [g, (±)-1-Cyclopropyl-8-difluoromethoxy-7-(1-methyliso-indolin-5-yl)-1,4-dihydro-4-oxoquinoline-3-carboxylic acid]: the MIC with S. aureus F-137 (setting [1]) is at most 0.05 µg/mL; in the data set with S. aureus F-597 (setting [2]) it was 0.1 µg/mL (≈ 0.235 µM); in the data set on S. aureus FDA209P (setting [3]), at most 0.05 µg/mL; in the data set with E. coli NIHJ JC-2 (setting [4]), at most 0.05 µg/mL. Also, the LD50 in the data set “in vivo” was at least 200 mg/kg.
As to `CC1NCc2cc(-c3ccc4c(=O)c(C(=O)O)cn(C5CC5)c4c3OC(F)F)ccc21` (single isomer, unassigned; (-)) [i, (-)-1-Cyclopropyl-8-difluoromethoxy-7-(1-methyliso-indolin-5-yl)-1,4-dihydro-4-oxoquinoline-3-carboxylic acid], the MIC was at most 0.05 µg/mL against S. aureus F-137 (Mueller Hinton agar); at most 0.05 µg/mL in the data set with S. aureus F-597 (20 hours); at most 0.05 µg/mL against S. aureus FDA209P (S. aureus FDA209P, Mueller Hinton agar, 10^6 cells/plate, 37° C., 20 hours); at most 0.05 µg/mL in the data set on E. coli NIHJ JC-2 (E. coli NIHJ JC-2, Mueller Hinton agar, 10^6 cells/plate, 37° C., 20 hours). Moreover, the LD50 in the data set “in vivo” was at least 200 mg/kg.
Consider `O=C(O)c1cn(C2CC2)c2cc(N3CCNCC3)c(F)cc2c1=O` [j, 1-Cyclopropyl-6-fluoro-7-(1-piperazinyl)-1,4-dihydro-4-oxoquinoline-3-carboxylic acid, reference compound], for which the MIC is 0.2 µg/mL (≈ 0.604 µM) in the data set on S. aureus FDA209P (Staphylococcus aureus, FDA209P, 20 h) and at most 0.05 µg/mL in the data set on E. coli NIHJ JC-2 (Escherichia coli, NIHJJC2, 20 h).
As to `Cc1c(-c2cc(F)c3c(c2)CNC3)ccc2c(=O)c(C(=O)O)cn(C3CC3)c12` [b, 1-Cyclopropyl-7-(7-fluoroisoindolin-5-yl)-8-methyl-1,4-dihydro-4-oxoquinoline-3-carboxylic acid], the MIC with S. aureus F-137 (setting [1]), in the data set with S. aureus F-597 (setting [2]), with S. aureus FDA209P (setting [3]) and in the data set on E. coli NIHJ JC-2 (setting [4]) was at most 0.05 µg/mL in each case.
Turning to `COc1c(-c2cc(F)c3c(c2)CNC3)ccc2c(=O)c(C(=O)O)cn(C3CC3)c12` [d, 1-Cyclopropyl-7-(7-fluoroisoindolin-5-yl)-8-methoxy-1,4-dihydro-4-oxoquinoline-3-carboxylic acid], the MIC in the data set with S. aureus F-137 (setting [1]), in the data set on S. aureus F-597 (setting [2]), in the data set on S. aureus FDA209P (setting [3]) and in the data set with E. coli NIHJ JC-2 (setting [4]) was at most 0.05 µg/mL in each case.
Regarding `O=C(O)c1cn(C2CC2)c2c(OC(F)F)c(-c3cc(F)c4c(c3)CNC4)ccc2c1=O` [f, 1-Cyclopropyl-8-difluoromethoxy-7-(7-fluoroiso-indolin-5-yl)-1,4-dihydro-4-oxoquinoline-3-carboxylic acid], the MIC in the data set with S. aureus F-137 (setting [1]), in the data set with S. aureus F-597 (setting [2]), with S. aureus FDA209P (setting [3]) and in the data set with E. coli NIHJ JC-2 (setting [4]) was at most 0.05 µg/mL throughout.
As to `Cc1c(-c2ccc3c(c2)CNC3)ccc2c(=O)c(C(=O)O)cn(C3CC3)c12` [a, 1-Cyclopropyl-7-(isoindolin-5-yl)-8-methyl-1,4-dihydro-4-oxoquinoline-3-carboxylic acid], the MIC with S. aureus F-137 (setting [1]) was at most 0.05 µg/mL; with S. aureus F-597 (setting [2]) it was 0.1 µg/mL (≈ 0.277 µM); in the data set on S. aureus FDA209P (setting [3]), at most 0.05 µg/mL; in the data set on E. coli NIHJ JC-2 (setting [4]) it was at most 0.05 µg/mL.
As to `CC1NCc2cc(-c3ccc4c(=O)c(C(=O)O)cn(C5CC5)c4c3OC(F)F)ccc21` (single isomer, unassigned; (+)) [h, (+)-1-Cyclopropyl-8-difluoromethoxy-7-(1-methyliso-indolin-5-yl)-1,4-dihydro-4-oxoquinoline-3-carboxylic acid], the MIC in the data set on S. aureus F-137 (setting [1]) was at most 0.05 µg/mL; with S. aureus F-597 (20 hours), 0.2 µg/mL (≈ 0.469 µM); in the data set on S. aureus FDA209P (setting [3]), at most 0.05 µg/mL; with E. coli NIHJ JC-2 (setting [4]) it was at most 0.05 µg/mL.
For the compound `O=C(O)c1cn(C2CC2)c2c(OC(F)F)c(-c3ccc4c(c3)CNC4)ccc2c1=O` [e, 1-Cyclopropyl-8-difluoromethoxy-7-(isoindolin-5-yl)-1,4-dihydro-4-oxoquinoline-3-carboxylic acid], the MIC with S. aureus F-137 (setting [1]) is at most 0.05 µg/mL; in the data set with S. aureus F-597 (setting [2]), 0.1 µg/mL (≈ 0.242 µM); in the data set on S. aureus FDA209P (setting [3]), at most 0.05 µg/mL; in the data set on E. coli NIHJ JC-2 (setting [4]) it was at most 0.05 µg/mL. For the same compound, in the data set “in vivo”, the LD50 was at least 200 mg/kg.
As to `COc1c(-c2ccc3c(c2)CNC3)ccc2c(=O)c(C(=O)O)cn(C3CC3)c12` [c, 1-Cyclopropyl-7-(isoindolin-5-yl)-8-methoxy-1,4-dihydro-4-oxoquinoline-3-carboxylic acid], the minimum inhibitory concentration (MIC) is at most 0.05 µg/mL in the data set on S. aureus F-137 (setting [1]), 0.1 µg/mL (≈ 0.266 µM) in the data set on S. aureus F-597 (setting [2]), at most 0.05 µg/mL in the data set with S. aureus FDA209P (setting [3]) and at most 0.05 µg/mL with E. coli NIHJ JC-2 (setting [4]).

For the origin of these results see patent US6025370A, “Quinolonecarboxylic acid derivatives or salts thereof” (Toyama Chemical Co., Ltd., priority 1996, dated 2000).
